{"source": "patent EP0460016B1", "about": "“METASTASIS-ASSOCIATED COLLAGENOLYTIC METALLOPROTEINASES” (priority 1989, dated 1990)", "key": {"Mr 64,000 proteinase": {"tested_on": "Mr 64,000 proteinase", "format": "biochemical, rat", "method": "(§1) Identification of type IV collagenolytic enzymes secreted by mammary adenocarcinoma cells was performed by electrophoresis of serum-free conditioned media in a type IV collagen-embedded polyacrylamide gel followed by incubation and Coomassie blue staining, based on the methods described by Heussen and Dowdle (24). Type IV procollagen was purified from Engelbreth-Holm-Sworn tumors, dissolved in 0.5 M acetic acid or bovine lens capsule type IV collagen pepsin fragments (Seikagaku America, St. Petersburg, FL) in HCl at pH 3.0, neutralized with Tris and immediately dissolved in 2% SDS. After removing undissolved materials by a brief centrifugation at 18,000 x g, SDS-solubilized type IV collagen was copolymerized with 7.5% acrylamide. In some experiments, each of the following proteins was also embedded in SDS-polyacrylamide gels: rat hemoglobin; rat immunoglobulin G; bovine serum ablumin; bovine plasma fibronectin; bovine alpha-casein; and gelatin from swine skin (Sigma Chemical, St. Louis, MO). Electrophoresis of serum, or other samples such as one obtained from conditioned media, was carried out by the method of Laemmli (25) in polyacrylamide gels containing 0.5 to 1.0 mg/ml of type IV collagen.\n(§2) In the case of serum samples, serum (2.5 ul) was mixed with the same volume of sodium dodecyl sulfate sample buffer without reducing agents, and immediately subjected to electrophoresis in a 7.5% polyacrylamide gel containing the protein substrates. After electrophoresis, gels were rinsed twice with 2.5% Triton X-100 in 50 mM Tris-HCl buffer, pH 7.5, and incubated at 37`C for 16 h in 0.15 M NaCl, 10 mM CaCl₂ and 50 mM Tris-HCl buffer, pH 7.5, containing 0.05% NaN₃. Gels were stained with 0.05% Coomassie blue, 10% isopropanol, and 10% acetic acid in H₂0 and these destained with 10% isopropanol and 10% acetic acid in H₂0. Type IV collagenolytic enzymes were detected as transparent bands on the blue background of Coomassie blue-stained slab gels.\n(§3) In order to conduct zymography using samples obtained by the preparation of conditioned media, the following steps were performed. Mammary adenocarcinoma cells (1 x 10⁶ cells) were seeded in a 10-cm tissue culture plate and cultured for 24 h in […] complete medium containing 10% heat-inactivated FBS. The cells were extensively washed with DPBS and then further cultured in 10 ml of serum-free complete medium. The serum-free culture supernatants were withdrawn and sequentially centrifuged at 800 x g and 18,000 x g, and then aliquots of the supernatants were concentrated with Centricon 30 concentrators (Amicon, Danvers, MA) and mixed with SDS sample buffer."}, "[1]": {"biological_target": "T1, Mr 88,000 proteinase (88/92 kd type IV collagenolytic metalloproteinase) (Rattus norvegicus, UniProt P50282)", "T1 construct": "type IV collagenolytic enzymes secreted by mammary adenocarcinoma cells; endogenous in cells; host or cells: rat 13762NF mammary adenocarcinoma cell clones (MTF7-T35.3, MTC, MTLn3-T44.5), serum-free conditioned medium", "T1 sequence (P50282 108-708)": "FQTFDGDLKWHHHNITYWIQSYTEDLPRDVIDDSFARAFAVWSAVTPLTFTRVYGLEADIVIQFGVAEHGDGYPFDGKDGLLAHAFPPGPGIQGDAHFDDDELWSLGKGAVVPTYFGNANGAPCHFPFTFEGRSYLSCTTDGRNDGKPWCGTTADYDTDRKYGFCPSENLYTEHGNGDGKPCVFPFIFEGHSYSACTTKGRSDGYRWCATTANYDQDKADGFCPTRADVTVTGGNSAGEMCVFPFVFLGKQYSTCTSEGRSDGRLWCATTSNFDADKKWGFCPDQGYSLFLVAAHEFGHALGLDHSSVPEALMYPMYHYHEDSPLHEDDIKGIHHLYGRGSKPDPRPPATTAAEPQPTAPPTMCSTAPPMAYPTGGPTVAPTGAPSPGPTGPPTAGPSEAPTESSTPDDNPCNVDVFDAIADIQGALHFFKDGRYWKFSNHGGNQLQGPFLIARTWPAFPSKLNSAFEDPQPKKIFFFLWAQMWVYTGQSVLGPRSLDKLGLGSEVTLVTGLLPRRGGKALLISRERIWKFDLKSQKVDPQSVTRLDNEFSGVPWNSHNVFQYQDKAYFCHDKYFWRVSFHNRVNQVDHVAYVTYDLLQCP", "format": "biochemical", "method": "as §1, §2, §3"}, "[2]": {"conditions": "10 mM in incubation buffer, conditioned media from 48 h cultures"}, "[3]": {"conditions": "5 mM in incubation buffer, conditioned media from 48 h cultures"}, "[4]": {"conditions": "2 mM in incubation buffer, conditioned media from 48 h cultures"}}, "note": "Where two headings read alike, the source gives them in different places."}
{"smiles": "c1cnc2c(c1)ccc1cccnc12", "note": "[1,10-phenanthroline]", "values": [{"measurement": "active enzyme bands", "setting": "Mr 64,000 proteinase; [2]", "value": "did not appear"}, {"measurement": "active enzyme bands / enzyme activity", "setting": "[1]; [2]", "value": "did not appear"}, {"measurement": "active enzyme bands / enzyme activity", "setting": "[1]; 10 mM in incubation buffer, conditioned media from 48 h cultures, listed as 1, 10-phenanthroline, 10000 µM", "value": "inactive"}]}
{"smiles": "CCN1C(=O)C=CC1=O", "note": "[N-ethylmaleimide]", "values": [{"measurement": "enzyme activity", "setting": "Mr 64,000 proteinase; [3]", "value": "did not inhibit"}, {"measurement": "enzyme activity", "setting": "[1]; [3]", "value": "did not inhibit"}, {"measurement": "enzyme activity", "setting": "[1]; 5 mM in incubation buffer, conditioned media from 48 h cultures, listed as NEM", "value": "not inhibited"}]}
{"smiles": "O=C(O)CN(CCN(CC(=O)O)CC(=O)O)CC(=O)O", "note": "[EDTA, ethylenediaminetetraacetic acid]", "values": [{"measurement": "active enzyme bands", "setting": "Mr 64,000 proteinase", "value": "did not appear"}, {"measurement": "active enzyme bands / enzyme activity", "setting": "[1]", "value": "did not appear"}, {"measurement": "active enzyme bands / enzyme activity", "setting": "[1]; 10000 µM", "value": "inactive"}]}
{"smiles": "O=S(=O)(F)Cc1ccccc1", "note": "[phenylmethylsulfonyl fluoride]", "values": [{"measurement": "enzyme activity", "setting": "Mr 64,000 proteinase; [4]", "value": "did not inhibit"}, {"measurement": "enzyme activity", "setting": "[1]; [4]", "value": "did not inhibit"}, {"measurement": "enzyme activity", "setting": "[1]; 2 mM in incubation buffer, conditioned media from 48 h cultures, listed as PMSF", "value": "not inhibited"}]}
